US20140287447A1, “Ultrasensitive methodology for quantifying the kinase catalytic activity of any protein kinase in biological/clinical samples or recombinant/purified proteins using near-infrared-fluorescence (NIRF)-labeled, kinase-selective peptide substrates and a combination of kinase-selective inhibitors to …” (priority 2013, published 2014)

Legend:
[1] = test system: MDA-MB-231 breast cancer cell lysates; experiment: NIRF-based kinase reaction in breast cancer cell lysates with and without PKC-inhibitor cocktail; format: biochemical; conditions: cGMP 10 μM, MDA-MB-231 cell lysates
Procedure: This allows simultaneous determination of PKG-I kinase activity in MDA-MB-231 breast cancer cell lysates (D).
Each reagent has been previously experimentally tested to be the optimum concentration used for a complete radioactive-free kinase reaction to measure PKG kinase activity. The reagents for homogenizing buffer include: 20 mM Potassium phosphate (pH 7.0), 10 mM EDTA, 0.5 mM isobutylmethylxanthine, and 10 mM DTT.
Table 5 is the disclosure protocol that is illustrated as a work flow in FIG. 7. Biological samples can be prepared in the homogenizing buffer (Table 4) using a variety of techniques. These techniques include, but are not limited to: sonication, dounce-homogenation, the use of a tissue grinder, and/or a detergent specialized for lysing cells. Once a biological sample is prepared in the specially formulated homogenizing buffer from Table 4 or purified/recombinant protein buffer recommended by the manufacturer (2) included in the disclosure, the sample can be added to a sterile microfuge tube containing the radioactive-free kinase reaction mixture containing NIRF-Histone-H2B(29-35) (Table 3 and FIG. 1) (4). The kinase reaction typically requires an incubation chamber capable of reaching a temperature of 30° C. to incubate the samples. The time and temperature of incubation is determined by the researcher, but short incubation times of 2 minutes can be used. […]

[2] = substrate: Nc1ncnc2c1ncn2[C@@H]1O[C@H](COP(=O)(O)OP(=O)(O)OP(=O)(O)O)[C@@H](O)[C@H]1O; experiment: purified protein, by the assay type; conditions: 30.0 °C

Row | Molecule | effect of exogenously-added cGMP on kinase activity in cell lysates [1] | Km [2] [µM]
1 | Nc1nc2c(ncn2[C@@H]2O[C@@H]3COP(=O)(O)O[C@H]3[C@H]2O)c(=O)[nH]1 [cGMP, cyclic guanosine monophosphate] | does not cause increased kinase activity | 
2 | recombinant PKG-Iα (rPKG-Iα) (Homo sapiens) (protein) MSELEEDFAKILMLKEERIKELEKRLSEKEEEIQELKRKLHKCQSVLPVPSTHIGPRTTRAQGISAEPQTYRSFHDLRQAFRKFTKSERSKDLIKEAILDNDFMKNLELSQIQEIVDCMYPVEYGKDSCIIKEGDVGSLVYVMEDGKVEVTKEGVKLCTMGPGKVFGELAILYNCTRTATVKTLVNVKLWAIDRQCFQTIMMRTGLIKHTEYMEFLKSVPTFQSLPEEILSKLADVLEETHYENGEYIIRQGARGDTFFIISKGTVNVTREDSPSEDPVFLRTLGKGDWFGEKALQGEDVRTANVIAAEAVTCLVIDRDSFKHLIGGLDDVSNKAYEDAEAKAKYEAEAAFFANLKLSDFNIIDTLGVGGFGRVELVQLKSEESKTFAMKILKKRHIVDTRQQEHIRSEKQIMQGAHSDFIVRLYRTFKDSKYLYMLMEACLGGELWTILRDRGSFEDSTTRFYTACVVEAFAYLHSKGIIYRDLKPENLILDHRGYAKLVDFGFAKKIGFGKKTWTFCGTPEYVAPEIILNKGHDISADYWSLGILMYELLTGSPPFSGPDPMKTYNIILRGIDMIEFPKKIAKNAANLIKKLCRDNPSERLGNLKNGVKDIQKHKWFEGFNWEGLRKGTLTPPIIPSVASPTDTSNFDSFPEDNDEPPPDDNSGWDIDF |  | 8.8
